Laboratory results as given in paper PMC2755957 (The Journal of Biological Chemistry, 2009).
Where a chain is given by its changes, count along the chain named.

What was measured:
[1] = molecular target: T1, mouse Δ1–24-L-PGDS (lipocalin type prostaglandin D synthase) (Mus musculus, UniProt O09114, S45A/S81A/T67A); test: surface plasmon resonance; type: binding
T1 sequence (O09114 25-189 S45A/T67A/S81A): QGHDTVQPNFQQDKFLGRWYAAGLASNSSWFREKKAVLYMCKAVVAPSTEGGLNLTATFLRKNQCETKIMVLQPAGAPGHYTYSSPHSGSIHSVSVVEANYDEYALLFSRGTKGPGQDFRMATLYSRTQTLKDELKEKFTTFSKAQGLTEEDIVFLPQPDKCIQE

[2] = molecular target: T2, mouse Δ1–24-L-PGDS (lipocalin type prostaglandin D synthase) (Mus musculus, UniProt O09114, S81A); test: surface plasmon resonance; type: binding
T2 sequence (O09114 25-189 S81A): T1 sequence (O09114 25-189 S45A/T67A/S81A) with A21S, A43T

Δ^1–24-C65A + P110A = molecular target: T3, Δ^1–24-C65A + P110A (Mus musculus, UniProt O09114, C65A/P110A); test: biochemical
T3 sequence (O09114 1-189 C65A/P110A): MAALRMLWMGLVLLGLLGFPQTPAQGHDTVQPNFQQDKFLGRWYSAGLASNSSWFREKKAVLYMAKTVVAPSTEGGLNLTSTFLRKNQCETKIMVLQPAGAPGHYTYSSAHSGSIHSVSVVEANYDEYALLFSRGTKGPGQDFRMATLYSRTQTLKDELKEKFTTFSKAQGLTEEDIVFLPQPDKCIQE

Δ^1–24-L-PGDS + P110A = molecular target: T4, Δ^1–24-L-PGDS + P110A (Mus musculus, UniProt O09114, P110A); test: biochemical
T4 sequence (O09114 1-189 P110A): T3 sequence (O09114 1-189 C65A/P110A) with A65C

[3] = molecular target: T5, mouse Δ1–24-L-PGDS (lipocalin type prostaglandin D synthase) (Mus musculus, UniProt O09114, H116A); test: biochemical
T5 sequence (O09114 25-189 H116A): T1 sequence (O09114 25-189 S45A/T67A/S81A) with A21S, A43T, A57S, H92A

[4] = molecular target: T5, mouse Δ1–24-L-PGDS (lipocalin type prostaglandin D synthase); test: surface plasmon resonance; type: binding
[5] = molecular target: T6, Δ^1–24-L-PGDS + S45A/S81A (Mus musculus, UniProt O09114, S45A/S81A); test: biochemical
T6 sequence (O09114 1-189 S45A/S81A): T3 sequence (O09114 1-189 C65A/P110A) with S45A, A65C, S81A, A110P

Kd [1] | Kd [2] | Kd (Δ^1–24-C65A + P110A) | Kd (Δ^1–24-L-PGDS + P110A) | Kd [3] | Kd [4] | Kd [5] | SMILES
12.9 ± 2.4 µM | 14.6 ± 2.4 µM | 22.4 ± 1.4 µM | 13.5 ± 3.1 µM | 27.3 ± 2.5 µM | – | – | CCCCC[C@H](O)/C=C/[C@H]1[C@@H]2CO[C@@H](C2)[C@@H]1C/C=C\CCCC(=O)O [U-44069]
22 ± 2 µM | 17 ± 1.7 µM | – | – | – | 48.5 ± 4.4 µM | 19.1 ± 2.6 µM | CCCCC[C@H](O)/C=C/[C@@H]1[C@@H](C/C=C\CCCC(=O)O)[C@H]2CO[C@@H]1C2 [U-46619]
